Here are results for 64 compounds from a melting point compilation (Tetko et al.; mined from patent text by program, amines drawn as free bases though some values may be those of a salt).

The melting point is the temperature of the solid-liquid transition. Compound `O=C1Nc2ccc(-c3ccc(Cl)cc3)cc2C1=O` displayed a melting point of 246 to 252 °C.
The figure for `CCC(C)(C)NC(Nc1ccc2c(c1)OCO2)=C(C#N)C(=O)C(C)(C)C` is 161 to 165 °C; for `CNS(=O)(=O)c1ccc(C2=C(c3cccc(F)c3)C(=O)C(C)(C)O2)cc1` it is 176 to 177 °C.
To `CC(C)(C)OC(=O)[C@@H]1CC[C@@H]2CN1C(=O)N2OCc1ccccc1` belongs 83 °C.
Consider `COc1cc(Nc2nccc(-c3ccc(N4CCN(CCCN5C(=O)c6ccccc6C5=O)CC4)nc3)n2)cc(OC)c1OC`, for which the melting point lay in the range of 105 to 106 °C.
The figure for `COc1cc(-c2csc(C#N)n2)cc(Cl)c1OC` is 147 to 149 °C.
To `CC(C)OC(=O)c1ccc2c(c1)ncn2-c1cccc(Br)c1` belongs 102 to 104 °C; to `Cc1ccc2sc(C(=O)O)cc(=O)c2c1`, 236 to 237 °C.
The figure for `C#CCSC(=NC(=O)OC)NC(=O)Nc1ccc(C)cc1` is 161 to 162 °C.
For `CCCCCCCCCCCCc1cc(N)on1`, the melting point lay within 48.5 to 49.5 °C.
The figure for `COC(=O)c1ccc2c(c1)ncn2N` is 194 to 195 °C.
For `Cc1ccc(Cl)cc1N1CN(C)CNC1=S`, the melting point is 171 to 173 °C.
For the compound `CC1(C)Oc2ccc(OCCCC(F)(F)F)cc2[C@H](NS(C)(=O)=O)[C@H]1O`, the melting point is 186 °C.
The figure for `O=C(NNC(=O)c1occ(-c2ccccc2)c1-c1ccccc1)c1ccc(O)c([N+](=O)[O-])c1` is 214 to 217 °C; for `COC(=O)Nc1c(Cl)ccc(Br)c1F` it is 107 to 112 °C; for `Cc1ccc(C(F)(F)C(F)(F)c2ccc(Br)cc2)cc1` it is 104 to 106 °C.
The compound `CCCCCCOc1nc(O)ns1` displayed a melting point of 61 °C.
The figure for `COc1ccc(-c2cc(CO)c(=O)n(Cc3ccc(Cl)cc3)c2)cc1` is 128 °C; for `CCn1ncc2c3onc(-c4cccc(F)c4)c3cnc21` it is 136 to 137 °C.
`Cn1cc(C(=O)NCc2ccc(Cl)cc2)c(=O)c2cc(CN3CCCOCC3)ccc21` had a melting point of 178 to 179 °C.
The figure for `O=C(NC(Cc1c[nH]c2ccccc12)C(=O)NCc1cc(C(F)(F)F)cc(C(F)(F)F)c1)c1ccccc1` (centres undefined) is 182 to 184 °C; for `O=S(=O)(c1ccccc1)N1CCC(=C(c2ccc(F)cc2)c2ccc(F)cc2)CC1` it is 90 to 92.5 °C.
The compound `Cc1ccc(S(=O)(=O)OCC(O)Cc2c(Cl)cc3c(c2O)CCC3)cc1` (centres undefined) yielded a melting point of 125 to 127 °C.
In turn, `CCCCCCN(Cc1ccccc1)c1c(N[C@@H](Cc2ccccc2)C(=O)O)c(=O)c1=O` registered a melting point of 61 to 65 °C.
`COCc1c(-c2ccc(O)cc2)oc2ccccc2c1=O`: the melting point was 237 to 239 °C.
`O=C(O)C1(c2ccccc2)CC2CC2C1` (centres undefined) came in with a melting point of 78 to 125 °C.
As to `CC(=O)Nc1cc(S(=O)(=O)c2ccccc2)ccc1NC(=O)C(C)(O)C(F)(F)F` (centres undefined), the melting point was in the range of 205 to 207 °C.
Take `CCN(C)C(=O)[C@H]1O[C@@H](n2cnc3c(N)ncnc32)[C@H](O)[C@@H]1O`: the melting point was 86 to 90 °C.
To `O=c1c2ccccc2c(-c2ccccc2)cn1CCCO` belongs 84 °C.
The figure for `Cn1c(C(=O)O)ccc1C(=O)c1ccccc1` is 178 to 181 °C; for `OCC(O)CNC(c1ccccc1)C(O)c1ccccc1` (centres undefined) it is 161 to 163 °C.
The figure for `CC(=O)Oc1cc2c(cc1C=O)C1CCC3(C)C(O)CCC3C1CC2` (centres undefined) is 73 to 75 °C; for `O=C(O)c1cc(OCCCOc2ccc(O)cc2)cc(OCCCOc2ccc(O)cc2)c1` it is 160 to 162 °C; for `Cc1c(-c2ccccc2)c(C2=CCNC2)c2oc(C3CC3)nc2c1C#N` it is 172 to 174 °C.
In turn, `CCOC(=O)C(=O)Nc1ccc(N(C)C)cc1O` displayed a melting point of 259 to 260 °C.
To `c1ccc(Nc2ccc(-c3ccc(N(c4ccccc4)c4ccc(-c5ccccc5)cc4)cc3)cc2)cc1` belongs 127 °C; to `O=CCCNC(=O)c1cc(Br)c(Br)[nH]1`, 160 to 163 °C.
To `CCCN(CC)S(=O)(=O)NC(=S)N1CC(c2ccccc2)C(c2ccc(Cl)cc2)=N1` (centres undefined) belongs 144 to 146 °C.
The figure for `NCCc1ccc(C=Cc2ccccc2)cc1` is 141 to 156 °C.
The compound `O=C(NCCO)c1cccc(-c2ccc3ccn(-c4ncc(Cl)cc4Cl)c3n2)c1` returned a melting point of 196 to 197 °C.
`CS(=O)(=O)c1ccc2ccc(C(=O)O)cc2c1` showed a melting point of 273 to 274 °C.
To `CN(C)c1ccc([N+](=O)[O-])c(C(=O)NCC2CCN(C(c3ccccc3)c3ccccc3)CC2)c1` belongs 200 °C; to `COc1c(C=NO)ccc2c1OCO2`, 118 to 119 °C; to `O=C1N(CCCOCc2ccccc2)c2ccccc2C12COc1cc3c(cc12)CCO3` (centres undefined), 112 to 113 °C.
The figure for `FCc1cccc(C#CCCc2cnc3cc(F)c(F)cc3n2)n1` is 135 to 138 °C; for `COc1cc2cc(N(C)C)sc2cc1OCc1ccccc1` it is 140 to 142 °C.
With `COc1ccc(CCl)cc1OCc1nc(-c2ccccc2)oc1C`, the melting point was in the range of 129 to 130 °C.
To `CCOC(=O)c1cn(C)c2cnc3cc(F)c(N4CCN(c5cccc(OC)c5)C(C)C4)cc3c2c1=O` (centres undefined) belongs 226 °C.
The figure for `N#CC(N)c1ccc(F)cc1` (centres undefined) is 77.9 °C.
To `CCCCOCCOc1ccc(-c2ccc3c(c2)C=C(C(=O)Nc2ccc(/C(Cc4nccn4CCC)=N/OCC)cc2)CCN3CC(C)C)cc1` belongs 156 °C; to `OCc1cc(CO)c(O)c(-c2ccccc2)c1`, 105 to 110 °C.
Regarding `CCNC=C(C(=O)C=Cc1cccnc1)C(=O)OC`, the melting point was 78 to 80 °C.
To `NC1CCN(C2c3ccccc3COc3ccc(Br)cc32)CC1` (centres undefined) belongs 142 to 144 °C; to `CN1CCC(c2c[nH]c3ccc(NC(=O)c4ccc(Cl)cc4Cl)nc23)CC1`, 151 to 152 °C.
Consider `CCCCc1c2c(nn1CCC)c(N)nc1ccccc12`, for which the melting point was 164 to 166 °C.
The figure for `CCCCCCCCCCCOc1ccc(C(=O)O)cc1OCCCCCCCCCCC` is 98 to 101 °C.
Regarding `CC1Nc2cc(NC(=O)c3ccc(-c4ccccc4)cc3)ccc2N1C` (centres undefined), the melting point was 272 to 274 °C.
The figure for `ON=C1CCc2c(cccc2OCC(O)CN2CCN(C(c3ccccc3)c3ccccc3)CC2)C1` (centres undefined) is 177 °C.
The figure for `CC(C)c1nc(CN(C)C(=O)N[C@@H](C)C(=O)N[C@@H](Cc2ccccc2)C[C@H](O)[C@H](Cc2ccccc2)NC(=O)OCc2cncs2)cs1` is 56 to 58 °C; for `Nc1ccc(CC(NC(=O)C(c2ccccc2)c2ccccc2)c2ccccc2)cc1` (centres undefined) it is 161 to 163 °C; for `CSC(=NC#N)N(C)N` it is 69 to 71 °C.
The figure for `CCOc1cc(-c2cc(C(F)(F)F)n3ncc(C(=O)Nc4cccc(S(=O)(=O)N5CCOCC5)c4)c3n2)ccc1C(F)(F)F` is 235 °C.
As for `CN1CC=C(c2c[nH]c3ccc(NS(C)(=O)=O)cc23)CC1`, the melting point was in the range of 210 to 214 °C.
To `CC(C)N1C(=O)[C@@H](CCCC(=O)O)O[C@H](c2ccccc2Cl)c2cc(Cl)ccc21` (relative stereo) belongs 158 to 160 °C.
